We go through one molecule from patent US7338955B1, “Medicament for treatment of neuropathies” (Lilly ICOS LLC, priority 1999, dated 2008).

SMILES strings stand for the structures.

Assay [1] deals with diabetic polyneuropathy. The experiment in a line: Case report: type 2 diabetes patient with diabetic polyneuropathy treated with sildenafil. In kind it is in vivo, human. To be noted: twelve months after start of therapy. How it is done: A patient had been suffering from diabetes mellitus, type 2, for 9 years. While blood glucose values (HbA1c between 6 and 7%) were good, symptoms of a diabetic polyneuropathy appeared, namely vibration sensing of 2/8, no filament sensing, and a reduced hot/cold differentiation. Because of a simultaneous erectile dysfunction they were treated with sildenafil in its commercially available preparation (tablets) at 50 mg/week in a single administration.
Subjectively, the patient noted disappearance of sensory misperceptions of temperature.

For assay [2], the system named is painful neuropathy. In words: Case report: type 1 diabetes patient with painful neuropathy treated with sildenafil. Format: in vivo, human. The note with it: 50 mg/week single administration. How it is done: A patient had been suffering from diabetes mellitus, type 1, for about 35 years. Complications included a retinopathy and a painful neuropathy. Under intensified insulin therapy, blood glucose metabolism data were in a sub-optimum range (HbA1c around 8%). Thus, the patient suffered from a painful neuropathy and was treated unsuccessfully with various conventional medicaments.
Objectifiable diagnostic data were improved as well.

For `CCCc1nn(C)c2c(=O)[nH]c(-c3cc(S(=O)(=O)N4CCN(C)CC4)ccc3OCC)nc12` [sildenafil], the neurologic situation result in assay [1] (50 mg/week single administration (tablets)) is “largely normal”. In addition, the “sensory misperceptions of temperature (subjective)” value in assay [1] (50 mg/week) is recorded as “disappearance”. In assay [1] (50 mg/week, 2/8 before therapy), the vibration sensing is 5/8. Moreover, in assay [1] (50 mg/week, no filament sensing before therapy), the filament sensing entry was “intact”. Further, in assay [1] (50 mg/week, reduced before therapy), the hot/cold differentiation result was “intact”. Further, the symptomatic pain result in assay [2] (in the course of the following three months) was “lasting improvement”. Moreover, the objectifiable diagnostic data result in assay [2] (three months) was “improved”.
